Test results published in patent publication US6686390B2, “Compounds having antiinflamatory activity: process for their preparation and pharmaceutical compositions containing them” (Dr. Reddy's Laboratories Limited, priority 2000, dated 2004).

Columns and labels:
COX-2 [1] = biological target: T1, COX-2 (Homo sapiens, UniProt P35354); experiment: Spectrophotometric assay of cox-2 (TMPD oxidation); format: biochemical; design: made in house; host or cells: sf-9 insect cells, baculovirus; settings: microsomes from sf-9 cells with human cox-2, read-out: Percent inhibition COX-2; for inhibition at 100 µM: Conc. 100 μM
T1 sequence (P35354 18-604): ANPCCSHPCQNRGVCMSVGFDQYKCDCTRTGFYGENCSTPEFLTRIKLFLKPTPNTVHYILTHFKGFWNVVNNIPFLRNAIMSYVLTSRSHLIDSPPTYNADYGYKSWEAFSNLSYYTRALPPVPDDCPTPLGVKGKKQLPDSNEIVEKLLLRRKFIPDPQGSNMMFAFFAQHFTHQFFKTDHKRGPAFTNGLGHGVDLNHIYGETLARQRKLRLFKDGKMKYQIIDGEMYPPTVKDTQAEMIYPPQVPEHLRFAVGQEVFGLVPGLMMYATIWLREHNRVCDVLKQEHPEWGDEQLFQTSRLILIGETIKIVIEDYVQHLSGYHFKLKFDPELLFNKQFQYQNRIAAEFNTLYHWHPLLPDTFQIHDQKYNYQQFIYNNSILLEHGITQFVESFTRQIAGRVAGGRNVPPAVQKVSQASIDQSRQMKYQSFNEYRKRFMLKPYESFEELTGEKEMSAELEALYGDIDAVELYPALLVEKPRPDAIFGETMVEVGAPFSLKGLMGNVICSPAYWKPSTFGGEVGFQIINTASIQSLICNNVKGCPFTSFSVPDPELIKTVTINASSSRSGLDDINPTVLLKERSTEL
Description: (§1) 1. Spectrophotometric assay of cox-1 and cox-2:
(§2) Microsomal fraction of ram seminal vesicles used as a source of cox-1 enzyme (Hemler et al., 1976) and microsomes from sf-9 cells infected with baculo virus containing human cox-2 c-DNA used as a source of cox-2 enzyme (Wanda et al., 1994). Enzyme activity was measured using a chromogenic assay based on oxidation of N,N,N′,N′-tetramethyl-p-phenylenediamine (TMPD) during the reduction of PGG2 to PGH2 as per described by Copeland et al., 1994 with following modifications. The assay mixture (1000 μl) contains […] pH 8.0, 3 μM EDTA, 15 μM hematin, 150 units enzyme and 8% DMSO. The mixture was pre-incubated at 25° C. for 15 minutes before initiation of enzyme reaction in presence of compound/vehicle. The reaction was initiated by the addition of 100 μM arachidonic acid and 120 μM TMPD. The enzyme activity is measured by estimation of the initial velocity of TMPD oxidation over the first 25 seconds of the reaction followed by increase in absorbency at […]. The IC50 values were calculated using non-linear regression analysis of percent inhibitions.

COX-1 = biological target: T2, COX-1 (Homo sapiens, UniProt P23219); experiment: Human whole blood assay, COX-1 inhibition; format: cell-based
T2 construct: Fresh heparinised human whole blood; endogenous in cells; host or cells: human whole blood
Description: (§3) 2) Human Whole Blood Assay:
Fresh heparinised human whole blood was incubated with lipopolysaccharide (LPS) from E. coli at 100 μg/ml and with 2.5 μl vehicle (D)MSO) or test compound for 24 hours at 37° C. PGE2 levels in the plasma were measured using EIA kit (Cayman chemicals, USA) after deproteinization.

cox-1 enzyme = biological target: T3, cox-1 enzyme (Ovis aries, UniProt P05979); experiment: Spectrophotometric assay of cox-1 (TMPD oxidation); format: biochemical; settings: microsomal fraction of ram seminal vesicles, read-out: Percent inhibition COX-1; for inhibition at 100 µM: Conc. 100 μM
T3 construct: Microsomal fraction of ram seminal vesicles used as a source of cox-1 enzyme; from tissue; host or cells: ram seminal vesicles (microsomal fraction)
T3 sequence (P05979 25-600): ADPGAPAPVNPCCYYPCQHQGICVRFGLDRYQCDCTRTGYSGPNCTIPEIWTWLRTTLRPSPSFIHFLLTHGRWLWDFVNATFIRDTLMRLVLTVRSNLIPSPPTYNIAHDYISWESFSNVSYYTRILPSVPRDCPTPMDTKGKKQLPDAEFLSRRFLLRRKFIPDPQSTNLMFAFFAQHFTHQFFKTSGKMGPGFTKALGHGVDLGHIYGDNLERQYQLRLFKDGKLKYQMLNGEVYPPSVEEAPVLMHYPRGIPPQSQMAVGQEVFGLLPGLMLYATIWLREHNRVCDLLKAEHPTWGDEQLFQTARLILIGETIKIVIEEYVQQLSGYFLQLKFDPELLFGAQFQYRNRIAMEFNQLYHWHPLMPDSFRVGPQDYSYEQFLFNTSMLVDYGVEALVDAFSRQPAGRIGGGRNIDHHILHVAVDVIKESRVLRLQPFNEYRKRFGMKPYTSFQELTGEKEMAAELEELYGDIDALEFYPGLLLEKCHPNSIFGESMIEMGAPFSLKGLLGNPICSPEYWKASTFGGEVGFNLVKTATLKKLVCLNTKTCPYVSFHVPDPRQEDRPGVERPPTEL
Description: as §1, §2

COX-2 [2] = biological target: T1, COX-2; experiment: Human whole blood assay, COX-2 inhibition; format: cell-based; design: endogenous in cells; host or cells: human whole blood; settings: read-out: IC50 COX-II
Description: as §3
An aliquot of fresh blood was mixed either with DMSO or test compounds and was allowed to clot for 1 hour at 37° C. TXB2 levels in the serum were measured using EIA kit (Cayman chemicals, USA) after deproteinization.

T2 sequence (P23219 24-599): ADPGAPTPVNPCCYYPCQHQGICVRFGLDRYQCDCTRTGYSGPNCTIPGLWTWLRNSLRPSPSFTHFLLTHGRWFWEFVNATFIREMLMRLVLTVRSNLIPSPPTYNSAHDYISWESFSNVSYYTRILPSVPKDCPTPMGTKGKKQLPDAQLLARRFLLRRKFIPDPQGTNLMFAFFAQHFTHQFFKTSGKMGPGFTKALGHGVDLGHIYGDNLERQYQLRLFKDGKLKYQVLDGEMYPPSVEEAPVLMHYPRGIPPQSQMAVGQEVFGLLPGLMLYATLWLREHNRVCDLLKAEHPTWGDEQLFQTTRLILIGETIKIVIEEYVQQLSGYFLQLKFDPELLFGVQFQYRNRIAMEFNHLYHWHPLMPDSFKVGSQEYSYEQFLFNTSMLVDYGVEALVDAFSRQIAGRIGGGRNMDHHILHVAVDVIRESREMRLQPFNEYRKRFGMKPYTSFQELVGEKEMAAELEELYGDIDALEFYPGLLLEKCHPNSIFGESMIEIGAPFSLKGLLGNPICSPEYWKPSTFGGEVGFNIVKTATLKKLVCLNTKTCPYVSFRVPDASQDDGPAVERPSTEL

CSc1ccc(C2=C(c3ccc(S(C)(=O)=O)c(F)c3)COC2=O)cc1C [Example 53, 4-(3-Fluoro-4-methylsulfonylphenyl)-3-(3-methyl-4-methylsulfanylphenyl)-2,5-dihydro-2-furanone]
inhibition at 100 µM (COX-2 [1]): 100%
IC50 (COX-1): 247 ± 24 µM
melting point: 177 to 180 °C
inhibition at 100 µM (cox-1 enzyme): 44%
IC50 (COX-2 [2]): 0.368 µM

CS(=O)(=O)c1ccc(C2=C(c3cccc(F)c3)C(=O)OC2)c(F)c1 [Example 52, 4-(2-Fluoro-4-methylsulfonylphenyl)-3-(3-fluorophenyl)-2,5-dihydro-2-furanone]
inhibition at 100 µM (COX-2 [1]): 100%
IC50 (COX-1): 1220 ± 20 µM
melting point: 125 to 128 °C
inhibition at 100 µM (cox-1 enzyme): 12%
IC50 (COX-2 [2]): 0.578 ± 0.011 µM

CC1OC(=O)C(c2ccc(F)cc2)=C1c1ccc(S(C)(=O)=O)c(F)c1 (centres unmarked) [Example 89, 4-(3-Fluoro-4-methylsulfonylphenyl)-3-(4-fluorophenyl)-5-methyl-2,5-dihydro-2-furanone]
inhibition at 10 µM (COX-2 [1]; Conc. 10 μM): 95%
IC50 (COX-1): > 1000 µM
melting point: 190 to 192 °C
inhibition at 10 µM (cox-1 enzyme; Conc. 10 μM): 0%
IC50 (COX-2 [2]): 6.13 µM

CS(=O)(=O)c1ccc(C2=C(c3ccc(F)c(F)c3)C(=O)OC2)c(F)c1 [Example 69, 3-(3,4-Difluorophenyl)-4-(2-fluoro-4-methylsulfonylphenyl)-2,5-dihydro-2-furanone]
inhibition at 100 µM (COX-2 [1]): 93%
IC50 (COX-1): > 500 µM
melting point: 146 to 148 °C
inhibition at 100 µM (cox-1 enzyme): 10%
IC50 (COX-2 [2]): 0.318 ± 0.013 µM

CCC1OC(=O)C(c2ccc(F)cc2)=C1c1ccc(S(C)(=O)=O)c(F)c1 (centres unmarked) [Example 68, 5-Ethyl-4-(3-fluoro-4-methylsulfonylphenyl)-3-(4-fluorophenyl)-2,5-dihydro-2-furanone]
inhibition at 100 µM (COX-2 [1]): 100%
IC50 (COX-1): 297 µM
melting point: 176 to 178 °C
inhibition at 100 µM (cox-1 enzyme): 0%
IC50 (COX-2 [2]): 1.25 µM

Cc1cc(C2=C(c3ccccc3)C(=O)OC2)ccc1S(C)(=O)=O [Example 6, 4-(3-Methyl-4-methylsulfonylphenyl)-3-phenyl-2,5-dihydro-2-furanone]
inhibition at 100 µM (COX-2 [1]): 82%
IC50 (COX-1): > 500 µM
melting point: 167 to 170 °C
inhibition at 100 µM (cox-1 enzyme): 0%
IC50 (COX-2 [2]): 5.7 µM

CS(=O)(=O)c1ccc(C2=C(c3ccc(F)cc3)C(=O)OC2)c(F)c1 [Example 1, 3-(4-Fluorophenyl)-4-(2-fluoro-4-methylsulfonylphenyl)-2,5-dihydro-2-furanone]
inhibition at 100 µM (COX-2 [1]): 100%
IC50 (COX-1): 195 ± 27.5 µM
melting point: 160 to 162 °C
inhibition at 100 µM (cox-1 enzyme): 33%
IC50 (COX-2 [2]): 2.72 ± 0.425 µM

CCC1OC(=O)C(c2ccc(SC)c(C)c2)=C1c1ccc(S(C)(=O)=O)c(F)c1 (centres unmarked) [Example 71, 5-Ethyl-4-(3-fluoro-4-methylsulfonylphenyl)-3-(3-methyl-4-methylsulfanylphenyl)-2,5-dihydro-2-furanone]
inhibition at 100 µM (COX-2 [1]): 99%
melting point: 148 to 150 °C
inhibition at 100 µM (cox-1 enzyme): 3%

COc1ccc(C2=C(c3ccc(S(C)(=O)=O)cc3F)COC2=O)cc1C [Example 58, 4-(2-Fluoro-4-methylsulfonylphenyl)-3-(3-methyl-4-methoxyphenyl)-2,5-dihydro-2-furanone]
inhibition at 100 µM (COX-2 [1]): 93%
IC50 (COX-1): 357 ± 7.45 µM
melting point: 144 to 146 °C
inhibition at 100 µM (cox-1 enzyme): 19%
IC50 (COX-2 [2]): 0.524 ± 0.062 µM

CS(=O)(=O)c1ccc(C2=C(c3cc(F)cc(F)c3)C(=O)OC2)c(F)c1 [Example 70, 3-(3,5-Difluorophenyl)-4-(2-fluoro-4-methylsulfonylphenyl)-2,5-dihydro-2-furanone]
inhibition at 100 µM (COX-2 [1]): 92%
IC50 (COX-1): 115 µM
melting point: 125 to 127 °C
inhibition at 100 µM (cox-1 enzyme): 49%
IC50 (COX-2 [2]): 0.913 µM

CSc1ccc(C2=C(c3ccc(F)c(F)c3)C(=O)OC2)cc1Cl [Example 22, 4-(4-Methylsulfanyl-3-chlorophenyl)-3-(3,4-difluorophenyl)-2,5-dihydro-2-furanone]
melting point: 151 to 152 °C

CSc1ccc(C2=C(c3ccc(C)cc3)C(=O)OC2)cc1F [Example 27, 4-(4-Methylsulfanyl-3-fluorophenyl)-3-(4-methylphenyl)-2,5-dihydro-2-furanone]
melting point: 159 to 160 °C

COOSc1ccc(C2=C(c3ccc(C)cc3)C(=O)OC2)cc1Cl [Example 29]
melting point: 164 to 166 °C

CSc1ccc(C2=C(c3ccc(C(F)(F)F)cc3)C(=O)OC2)cc1C [Example 16, 4-(3-Methyl-4-methylsulfanylphenyl)-3-(4-trifluoromethylphenyl)-2,5-dihydro-2-furanone]
melting point: 140 to 143 °C

CC1(C)OC(=O)C(c2ccc(F)cc2)=C1c1ccc(S(C)(=O)=O)c(CN2CCOCC2)c1 [Example 67, 3-(4-Fluorophenyl)-5,5-dimethyl-4-(4-methylsulfonyl-3-morpholinomethylphenyl)-2,5-dihydro-2-furanone]
melting point: 127 to 130 °C

CSc1ccc(C2=C(c3ccccc3)C(=O)OC2)cc1F [Example 23, 4-(4-Methylsulfanyl-3-fluorophenyl)-3-phenyl-2,5-dihydro-2-furanone]
melting point: 145 to 146 °C

COc1ccc(C2=C(c3ccc(S(C)(=O)=O)c(C)c3)COC2=O)cc1C [Example 55, 3-(3-Methyl-4-methoxyphenyl)-4-(3-methyl-4-methylsulfonylphenyl)-2,5-dihydro-2-furanone]
inhibition at 100 µM (COX-2 [1]): 100%
IC50 (COX-1): > 100 µM
melting point: 147 to 150 °C
inhibition at 100 µM (cox-1 enzyme): 30%
IC50 (COX-2 [2]): 1 µM
